Reference: publication PMC6938011, “Antiplasmodial profile of selected compounds from Malaria Box: in vitro evaluation, speed of action and drug combination studies” (Malaria Journal, 2019)
Entries after “also recorded” stand apart in the source; their conditions may differ. Read-outs that look alike come from different tables or passages of the source.

How the values were obtained:
P. falciparum 3D7 strain [1] = test: SYBR Green I inhibition assay for the asexual stages of P. falciparum; format: cell-based, Plasmodium falciparum; settings: 72 h, read-out: IC50^Pf Average (confidence interval-95%)
Experimental: The P. falciparum 3D7 strain was kept in culture in a humidified incubator at 37 °C in RPMI-1640 medium with 25 mM NaHCO3, 25 mM HEPES (pH 7.4), 11 mM D-glucose, 3.67 mM hypoxanthine and 25 µg/mL gentamicin, supplemented with 0.5% (m/v) AlbuMAX II. The culture medium was changed daily, and the parasitaemia was maintained below 10% with 2.5% haematocrit in human erythrocytes.
The parasites were synchronized through sterile 5% (m/v) D-sorbitol treatment over 10 min at 37 °C for the enrichment of ring-stage parasites. The cultures were pelleted by centrifugation at 600×g over 5 min. The parasitaemia was determined by microscope analysis of thin blood smears stained with Giemsa 10% (v/v) after methanol fixation. The initial parasitaemia was calculated from 1000 red blood cells (RBCs), and cultures were diluted to 0.5% parasitaemia and 2% haematocrit by adding the appropriate volumes of erythrocytes and medium. Parasite aliquots of 180 µL were distributed into 96-well plates previously prepared with 20 µL aliquots of a tenfold concentrated compound. Negative and positive control wells corresponding to non-parasitized erythrocytes and parasite cultures in the absence of compounds were set in parallel. The DMSO concentration was maintained below 0.05% (v/v). The plates were incubated for 72 h at 37 °C in a humidified incubator with a gas mixture of 90% N2, 5% O2 and 5% CO2. After incubation, the culture medium was removed, and the cells were resuspended in 100 µL PBS buffer (116 mM NaCl, 10 mM Na2HPO4, 3 mM KH2PO4) and lysed with 100 µL lysis buffer (20 mM Tris base, 5 mM EDTA, 0.0008% (v/v) Triton X-100, 0.008% (m/v) saponin, pH 8.0) containing 0.002% (v/v) SYBR Green I. Plates were incubated at room temperature for 30 min, and the fluorescence corresponding to the parasitic density was determined using a SpectraMAX Gemini EM plate reader (Molecular Devices Corp., Sunnyvale, CA) (excitation at 485 nm, emission at 535 nm). The half maximal inhibitory concentration (IC50^Pf) was determined by non-linear regression analysis of the resulting concentration-response curve using the software Origin 2016 (OriginLab Corporation).

[2] = system: Hepatocarcinoma cells (HepG2); test: Cytotoxicity evaluation, MTT assay; format: cell-based, human; settings: HepG2, 72 h, read-out: IC50^HepG2, MTT Average (confidence interval-95%)
Experimental: (§1) Hepatocarcinoma cells (HepG2) were cultivated in RPMI medium supplemented with 10% (v/v) fetal bovine serum and 0.2% (v/v) penicillin/streptomycin. The antibiotics were added to the medium to eliminate the potential interference of microbial contamination. Cells were cultivated at 37 °C and 5% CO2; the supplemented medium was changed every 2 days.
(§2) For the experimental procedures, cells were trypsinized and transferred to a 96-well plate at 30,000 cells per well and incubated at 37 °C overnight for cell adhesion. Then, serial dilutions of the inhibitor candidates were added to the plate. Cells without any compounds were used as positive growth controls. The plate was incubated at 37 °C and 5% CO2 for 72 h. After incubation, the highest compound concentration to be considered (highest concentration without precipitation) was observed by microscopy. Cytotoxicity was evaluated by two different methods. The first is a colorimetric assay based on metabolic cell activity in the presence of 3-(4,5-dimethylthiazol-2-yl)-2,5-diphenyltetrazolium bromide (MTT). Briefly, mitochondrial enzymes can convert the MTT dye into the purple insoluble compound formazan. To each well, 20 µL MTT at 5 mg/mL was added, followed by incubation at 37 °C for 3 to 5 h. After incubation, the supernatant was removed, and formazan crystals were solubilized in 100 µL DMSO. The absorbance, which is proportional to the number of viable cells, was determined using a SpectraMAX Plus 384 plate reader (Molecular Devices Corp., Sunnyvale, CA) (λ = 570 nm). The second method is based on the uptake of neutral red, a dye that is retained inside the lysosomes of viable cells. To each well, after removal of culture media, 200 µL neutral red medium 40 µg/mL was added, followed by incubation at 37 °C for 3 to 5 h. After incubation, supernatant was dispensed, and 200 µL 0.5% (v/v) formaldehyde in 1% (m/v) CaCl2 was added to remove excess of the dye for 5 min. Supernatant was dispensed, and 100 µL alcohol-acid solution (50% (v/v) ethanol, 1% (v/v) glacial acetic acid) was added, and the plate was stirred until a homogeneous solution was formed. The absorbance was determined using a SpectraMAX Plus 384 plate reader (Molecular Devices Corp., Sunnyvale, CA) (λ = 540 nm). For both methods, the half maximal inhibitory concentration (IC50^HepG2) was determined by non-linear regression analysis of the resulting concentration-response curve using the software Origin 2016 (OriginLab Corporation).

[3] = system: Hepatocarcinoma cells (HepG2); test: Cytotoxicity evaluation, neutral red assay; format: cell-based, human; settings: HepG2, 72 h, read-out: IC50^HepG2, NR Average (confidence interval-95%)
Experimental: as §1, §2

P. falciparum [4] = test: Combination assays, isobologram analysis (FIC50 pairs); format: cell-based, Plasmodium falciparum; settings: for Isobologram data, Additive: fraction of FIC50 pairs / Isobologram data, Additive: number of FIC50 pairs / Isobologram data, Antagonistic: number of FIC50 pairs / Isobologram data, Synergic: number of FIC50 pairs / Isobologram data, Antagonistic: fraction of FIC50 pairs: combination with artesunate; for Combination profile with artesunate: isobologram, IC50 equivalent ratios 1:4, 2:3, 1:1, 3:2, 4:1
Experimental: Combinations of anti-malarial candidates with artesunate, an artemisinin derivative, were tested in fixed molar ratios based on the individual IC50 values that were previously determined by the SYBR Green I assay. Traditionally, a line (isobole) of additivity is used to distinguish between additive, synergic, and antagonistic interaction profiles. […] Thus, a systematic consideration of additivity ranges was included in the isobologram analysis, as previously described by Grabovsky and Tallarida. Concentration-response curves of individual compounds were used in the calculation of each pair’s additivity range (area within the upper and lower limits in Figs. 4 and 5). Fractional inhibitory concentration (FIC50) pairs plotted as points inside the additivity range indicate the expected sum of each compound effect, while points above and below the range indicate antagonistic and synergic interactions, respectively. The selected inhibitors were combined with artesunate in the IC50 equivalent ratios of 1:4, 2:3, 1:1, 3:2 and 4:1 for the construction of the isobolograms.

P. falciparum 3D7 strain [5] = system: P. falciparum 3D7 strain; parameters: method as in PMID 23798988; settings: reported potency of Malaria Box compounds ref 13, read-out: Reported IC50^Pf; cited from earlier work
P. falciparum [6] = settings: in vitro ref 34; cited from earlier work
P. berghei NK65 strain = test: In vivo suppressive parasite growth test against Plasmodium berghei; parameters: species or system Swiss outbred mice; settings: 20 mg/kg, positive control, P. berghei-infected mice
Experimental: A suppressive parasite growth test was performed in mice infected with P. berghei NK65 strain (originally received from the New York University Medical School), as described previously, with some modifications. Briefly, adult Swiss outbred mice (20 ± 2 g weight) were intraperitoneally inoculated with 1 × 10^5 red blood cells infected with P. berghei. The infected mice were maintained together for at least 2 h and then randomized into groups of 5 animals per cage, which were subsequently administered 50 mg/kg of each compound diluted in 3% (v/v) DMSO by oral gavage daily for 3 days. Two control groups were used in parallel: one was treated with CQ (20 mg/kg) and the other was treated with the vehicle. Blood smears from mouse tails were prepared on days 5 and 7 post-infection and then fixed with methanol, stained with Giemsa 10% (v/v), and examined under the microscope.

[7] = system: asexual intraerythrocytic stages of P. falciparum; test: Speed of action studies (microscopy of thin blood smears); format: cell-based, Plasmodium falciparum; settings: ring-stage parasites; for Parasite morphology during incubation: compound at tenfold the IC50, microscopy up to 36 h; for Speed of action: compound at tenfold the IC50, observed 0-36 h
Experimental: Parasites in thin blood smears were observed by microscopy after 0, 8, 16, 24 and 36 h of incubation.

SMILES | IC50 (P. falciparum 3D7 strain [1]) [nM] | Isobologram data, Additive: fraction of FIC50 pairs (P. falciparum [4]) [%] | Isobologram data, Additive: number of FIC50 pairs (P. falciparum [4]) | Isobologram data, Antagonistic: number of FIC50 pairs (P. falciparum [4]) | Isobologram data, Synergic: number of FIC50 pairs (P. falciparum [4]) | Combination profile with artesunate (P. falciparum [4]) | IC50 (P. falciparum 3D7 strain [5]) [nM] | IC50 [2] [nM] | IC50 [3] [nM] | Parasite morphology during incubation [7] | Speed of action [7] | Isobologram data, Antagonistic: fraction of FIC50 pairs (P. falciparum [4]) [%] | further results
C[C@H]1[C@H](OC(=O)CCC(=O)O)O[C@@H]2O[C@@]3(C)CC[C@H]4[C@H](C)CC[C@@H]1[C@@]24OO3 [Artesunate, reference compound] |  | 100 | 15 | 0 | 0 | Additivity | 8 |  |  |  |  |  | IC50 (P. falciparum 3D7 strain [1]; Plasmodium falciparum): 17 nM; IC50 ([2]; Homo sapiens): 110000 nM; IC50 ([3]; Homo sapiens): 110000 nM; Combination profile with artesunate (P. falciparum [4]; listed as artesunate): additive; Speed of action (literature) (P. falciparum [6]): fast
CCN(CC)CCCC(C)Nc1ccnc2cc(Cl)ccc12 (stereo not shown) [Chloroquine, reference compound] |  |  |  |  |  |  |  |  |  |  |  |  | % of reduction of parasitaemia, day 5 after infection (P. berghei NK65 strain): 100%; % of reduction of parasitaemia, day 7 after infection (P. berghei NK65 strain): 100%
CN1CCN(c2ccc(Nc3c4ccccc4nc4ccccc34)cc2)CC1 [Compound 1] | 74 | 8 | 1 | 11 | 0 | antagonistic | 142 | 3210 | 3340 | pyknotic nuclei formation | Fast | 92 | Combination profile with artesunate (P. falciparum [4]; listed as 01): Antagonism
CCn1c(CN2CCN(Cc3ccccc3)CC2)nc2cc(NC(=O)c3cccs3)ccc21 [Compound 5] | 250 | 15 | 2 | 11 | 0 |  | 512 | 90000 | > 100000 | punctual shapes after 16 h | fast-acting and Fast | 85 | Combination profile with artesunate (P. falciparum [4]; listed as 05): Antagonism
Fc1ccc2[nH]c3c(NCCCN4CCOCC4)ncnc3c2c1 [Compound 11] | 1600 |  | 0 | 12 | 0 | antagonistic; also recorded: Antagonism | 345 | > 50000 | > 50000 | punctual shapes after 16 h | Fast | 100 | 

More lines, in order of falling IC50 (P. falciparum 3D7 strain [1]), values ahead:

IC50 (P. falciparum 3D7 strain [1]) [nM] | SMILES | Isobologram data, Additive: fraction of FIC50 pairs (P. falciparum [4]) [%] | Isobologram data, Additive: number of FIC50 pairs (P. falciparum [4]) | Isobologram data, Antagonistic: number of FIC50 pairs (P. falciparum [4]) | Isobologram data, Synergic: number of FIC50 pairs (P. falciparum [4]) | Combination profile with artesunate (P. falciparum [4]) | IC50 (P. falciparum 3D7 strain [5]) [nM] | IC50 [2] [nM] | IC50 [3] [nM] | Parasite morphology during incubation [7] | Speed of action [7] | Isobologram data, Antagonistic: fraction of FIC50 pairs (P. falciparum [4]) [%] | further results
1000 | O=C(Nc1ccc(C23CC4CC(CC(c5ccccc5)(C4)C2)C3)cc1)c1cccs1 [Compound 7] | 22 | 2 | 7 | 0 |  | 826 | > 25000 | > 25000 | punctual shapes after 16 h | fast-acting and Fast | 78 | Combination profile with artesunate (P. falciparum [4]; listed as 07): Antagonism
440 | O=[N+]([O-])c1ccc(C=NNc2nc3ccccc3[nH]2)cc1 [Compound 4] | 8 | 1 | 12 | 0 |  | 142 | > 6250 | > 6250 | young trophozoites were observed after 36 h | slow-acting and Slow | 92 | Combination profile with artesunate (P. falciparum [4]; listed as 04): Antagonism
340 | Brc1ccc(Nc2nc3ccccc3nc2Nc2ccc(Br)cc2)cc1 [Compound 3] | 38 | 5 | 8 | 0 |  | 1060 | 5100 | > 6250 | punctual shapes after 16 h | Fast | 62 | Combination profile with artesunate (P. falciparum [4]; listed as 03): Antagonism
